Measured values taken from US20090215755A1, “USE OF A PYRAZOLE DERIVATIVE FOR PREPARING MEDICINAL PRODUCTS THAT ARE USEFUL IN THE PREVENTION AND TREATMENT OF DYSLIPIDAEMIAS AND OF DISEASES RELATED TO DYSLIPIDAEMIAS AND/OR TO OBESITY” (SANOFI-AVENTIS, priority 2003, published 2009).
Marks after values point to notes of the source that are not given here.

Experiments:
[1] = test system: obese mice; test: Action of rimonabant on blood lipid levels in obese mice (2 months of treatment); format: in vivo; conditions: rimonabant 10 mg/kg/day oral
Method: The effect of a long-term (2 months) treatment with rimonabant was studied in mice having an established obesity.
The study was carried out in mice receiving either a normal diet or a fatty diet. Obesity developed in the mice receiving a fatty diet and it became stabilized after 5 months. The mice were then divided up into 3 groups:
group 1: maintenance of the fatty diet and oral treatment for 2 months with rimonabant at 10 mg/kg/day, in water with 0.1% of Tween 80 (vehicle);
group 2: maintenance of the fatty diet and administration of the vehicle (water+0.1% of Tween 80);
group 3: return to a normal diet and administration of the vehicle (water+0.1% of Tween 80);
group 4 consists of mice receiving a normal diet and the vehicle from the start.

[2] = test system: obese fa/fa Zucker rats; test: Effect of rimonabant on steatosis and steatohepatitis in obese rats; format: in vivo; conditions: rimonabant 30 mg/kg/day oral, 2 months
Method: The effect of rimonabant on steatosis and steatohepatitis was studied in obese fa/fa Zucker rats.
For this study, 3 groups are formed: • thin rats/vehicle group: thin Zucker rats treated with the vehicle (water and 0.1% Tween 80); • obese rats/vehicle group: obese fa/fa Zucker rats treated with the vehicle (water and 0.1% Tween 80); • obese rats/rimonabant group: obese fa/fa Zucker rats treated orally for 2 months with rimonabant at 30 mg/kg/day, in the vehicle (water and 0.1% Tween 80).
After 2 months of treatment, the body weight and the weight of the liver are measured for each rat, and a histopathological analysis of the fat load in the livers is carried out.

[3] = test system: obese individuals with dyslipidaemias; test: Rio Lipids clinical study, 12 months, obese individuals with dyslipidaemias; format: in vivo, human
Method: The Rio Lipids clinical study, carried out for 12 months in 1036 obese individuals with dyslipidaemias, compares the effect of rimonabant at a dose of 20 mg, versus a placebo product, in weight reduction, improvement in the lipid parameters and prevalence of metabolic syndrome. The treated group and the placebo group are subjected to a low-calorie diet.

[4] = test system: obese patients; conditions: clinical studies, Le Fur 2003; Heshmati et al. 2001; cited from earlier work
[5] = test system: obese patients; test: Clinical trial of rimonabant on the lipid parameters, 4 weeks of treatment, obese patients; format: in vivo, human; conditions: for Improvement in metabolic syndrome / Weight loss / Decrease in triglycerides ≧10% / Increase in HDLc ≧10% / Blood glucose level: obese patients; for Improvement in metabolic syndrome: ATP III definition; for Weight loss: low-calorie diet; for Decrease in triglycerides ≧10% / Increase in HDLc ≧10%: share of patients; for Blood glucose level: signed values (change)
Method: A clinical trial was carried out for 4 weeks on 287 obese patients whose body mass index (BMI) was between 30 and 40. After having received the placebo for 2 weeks, the patients were randomized so as to receive doses of 5, 10 or 20 mg/day of rimonabant or the placebo.
There was a check-up visit 4 weeks after the end of the treatment.
For the duration of the study, the patients were asked to follow a low-calorie diet (deficit of 500 kcal/day).

[6] = group 1: obese mice kept on fatty diet
[7] = group 1: obese mice, fatty diet
[8] = rimonabant groups 5, 10, 20 mg/day taken together

Question: With `Cc1c(C(=O)NN2CCCCC2)nn(-c2ccc(Cl)cc2Cl)c1-c1ccc(Cl)cc1` [rimonabant, N-piperidino-5-(4-chlorophenyl)-1-(2,4-dichlorophenyl)-4-methylpyrazole-3-carboxamide] as the compound, how does the HDLc/total cholesterol [1, 6] read?
Answer: 62.2 ± 0.5 %

Question: And the LDLc/total cholesterol [1, 6]?
Answer: 5.5 ± 0.3 %

Question: What about the glucose blood level [1, 7] of the same compound?
Answer: decrease

Question: And the insulin blood level [1, 7]?
Answer: decrease

Question: What about the leptin blood level [1, 7] of the same compound?
Answer: decrease

Question: What about the “Liver weight/body weight ratio” value [2] of the same compound?
Answer: 3.86 ± 0.07 %

Question: And the “decrease of the increase in the liver weight/body weight ratio seen in obese/vehicle rats” value [2]?
Answer: 80%

Question: And the “fat overload in the liver (histopathological analysis)” value [2]?
Answer: disappearance of this fat overload

Question: What about the “adiponectin, starting level” value ([3]; rimonabant 20 mg group, before the year of treatment) of the same compound?
Answer: 5.8 ± 2.7 µg/mL

Question: And the “adiponectin at the end of the year of treatment” value ([3]; rimonabant 20 mg, 12 months)?
Answer: 8.2 ± 4.2 µg/mL

Question: What about the “increase in the HDLc level exceeding that of the placebo group” value ([3]; rimonabant 20 mg, 12 months, low-calorie diet) of the same compound?
Answer: 11.3±1.7%

Question: And the “decrease in the triglyceride level exceeding that of the placebo group” value ([3]; rimonabant 20 mg, 12 months, low-calorie diet, p<0.001)?
Answer: 12.2±3.7

Question: What about the “weight loss greater than that observed in the placebo group” value ([3]; rimonabant 20 mg, 12 months, low-calorie diet, p≦0.001) of the same compound?
Answer: 6.3 ± 0.5 kg

Question: What about the “patients who stopped showing the metabolic syndrome characteristics” value ([3]; rimonabant 20 mg, 12 months, p<0.001 vs placebo) of the same compound?
Answer: 60.2%

Question: What about the “body weight of obese patients” value [4] of the same compound?
Answer: reduces the body weight of obese patients

Question: And the food intake [4]?
Answer: acts on food intake from a quantitative and qualitative point of view

Question: What about the “Improvement in metabolic syndrome” value ([5]; 5 mg/d rimonabant) of the same compound?
Answer: 42%

Question: What about the Weight loss ([5]; 5 mg/d rimonabant) of the same compound?
Answer: 3.4 * kg

Question: What about the “Decrease in triglycerides ≧10%” value ([5]; 5 mg/d rimonabant) of the same compound?
Answer: 36%

Question: What about the “Increase in HDLc ≧10%” value ([5]; 5 mg/d rimonabant) of the same compound?
Answer: 43%

Question: What about the Blood glucose level ([5]; 5 mg/d rimonabant) of the same compound?
Answer: −0.09 ** mmol/1

Question: And the “Improvement in metabolic syndrome” value ([5]; 10 mg/d rimonabant)?
Answer: 39%

Question: What about the Weight loss ([5]; 10 mg/d rimonabant) of the same compound?
Answer: 3.7 * kg

Question: And the “Decrease in triglycerides ≧10%” value ([5]; 10 mg/d rimonabant)?
Answer: 34%

Question: What about the “Increase in HDLc ≧10%” value ([5]; 10 mg/d rimonabant) of the same compound?
Answer: 45%

Question: What about the Blood glucose level ([5]; 10 mg/d rimonabant) of the same compound?
Answer: −0.02 *** mmol/1

Question: What about the “Improvement in metabolic syndrome” value ([5]; 20 mg/d rimonabant) of the same compound?
Answer: 21%

Question: And the Weight loss ([5]; 20 mg/d rimonabant)?
Answer: 4.5 * kg

Question: What about the “Decrease in triglycerides ≧10%” value ([5]; 20 mg/d rimonabant) of the same compound?
Answer: 51%

Question: And the “Increase in HDLc ≧10%” value ([5]; 20 mg/d rimonabant)?
Answer: 44%

Question: And the Blood glucose level ([5]; 20 mg/d rimonabant)?
Answer: +0.03 mmol/1

Question: What about the “blood glucose level (overall statement)” value [5, 8] of the same compound?
Answer: remains stable or decreases discretely

Question: What about the “metabolic syndrome as defined by ATP III (overall statement)” value [5, 8] of the same compound?
Answer: tendency for the metabolic syndrome to improve

Question: What about the “triglycerides (overall statement)” value [5, 8] of the same compound?
Answer: tendency for the triglycerides to decrease
